Measurements taken from US20200289474A1, “METHODS OF TREATING PAIN WITH A THIAZOLINE ANTI-HYPERALGESIC” (priority 2019, published 2020).

What was measured:
[1] = system: lactoperoxidase; assay: lactoperoxidase oxidation (mediated by peroxide); type: biochemical; details: physiological conditions (neutral pH)
[2] = system: incision-induced hyperalgesia; assay: mouse model of severe incision; type: in vivo; details: 10 mg/kg IP daily for 15 days; Days 1, 3, 6, 8, 10, 13, 15 and 21
Text: Two incisional pain models were used to assess Compound 1 effects on hyperalgesia. The first model is referred to as the Brennan model in which, under anesthesia, a 1 cm longitudinal incision to the skin and underlying fascia of a rat hindpaw is made. The second is a variation but is a more invasive procedure in which the skin and muscle are spread apart using forceps which creates a longer-lasting hypersensitivity.
In a mouse model of severe incision (tissue and muscle spread with forceps), animals were at baseline for mechanical thresholds prior to incision and then given a daily dose of Compound 1 (10 mg/kg IP) or vehicle for 15 days.

[3] = rat pharmacokinetics after single PO dose; type: in vivo; details: for Compound 1 Concentration in Rat Plasma / Compound 1 Concentration in Rat Plasma, Average / mean Cmax / t1/2: 100 mg/kg single PO; for Compound 1 Concentration in Rat Plasma: individual animals
Procedure: In both assays, a deuterated (Compound 1-d4) internal standard was used.
The objective of this non-GLP study was to determine the pharmacokinetics of Compound 1 after a single oral (gavage) dose in rats, and to determine if Compound 1 undergoes epimerization in the rat. Compound 1 was administered to CD® IGS [Crl:CD(SD)] (Sprague Dawley) rats (5/sex/group) as a single oral gavage dose of 100 mg/kg in a vehicle of 0.5% aqueous HPMC. Rats were dosed at a dose volume of 10 mL/kg body weight.

[4] = dog pharmacokinetics, single PO (10 mg/kg) and IV (3 mg/kg) dose; type: in vivo
Procedure: The objective of the first single dose non-GLP study in dogs was to determine the pharmacokinetics and bioavailability of Compound 1 after a single oral (gavage) or single intravenous (IV) dose in dogs. The test article formulation was administered to three male dogs orally via gavage at a dose level of 10 mg/kg (dosing volume of 2 mL/kg body weight). Following a wash-out period of a minimum of three days, the same three dogs were administered the test article formulation via an IV bolus push over approximately 1-2 minutes at a dose level of 3 mg/kg (dosing volume of 0.5 mL/kg). The vehicle for oral gavage dosing was 0.5% HPMC; the vehicle for IV injection was sterile phosphate buffered saline (PBS; pH 7.4). […] Animals were returned to quarantine after the last blood collection.

[5] = target: T1, OAT1 (Homo sapiens, UniProt Q4U2R8); assay: transporter inhibition, HEK293 cells, probe accumulation; type: in vitro ADME
T1 construct: expressed in transfected cells; host or cells: HEK293 cells
T1 sequence (Q4U2R8 1-563): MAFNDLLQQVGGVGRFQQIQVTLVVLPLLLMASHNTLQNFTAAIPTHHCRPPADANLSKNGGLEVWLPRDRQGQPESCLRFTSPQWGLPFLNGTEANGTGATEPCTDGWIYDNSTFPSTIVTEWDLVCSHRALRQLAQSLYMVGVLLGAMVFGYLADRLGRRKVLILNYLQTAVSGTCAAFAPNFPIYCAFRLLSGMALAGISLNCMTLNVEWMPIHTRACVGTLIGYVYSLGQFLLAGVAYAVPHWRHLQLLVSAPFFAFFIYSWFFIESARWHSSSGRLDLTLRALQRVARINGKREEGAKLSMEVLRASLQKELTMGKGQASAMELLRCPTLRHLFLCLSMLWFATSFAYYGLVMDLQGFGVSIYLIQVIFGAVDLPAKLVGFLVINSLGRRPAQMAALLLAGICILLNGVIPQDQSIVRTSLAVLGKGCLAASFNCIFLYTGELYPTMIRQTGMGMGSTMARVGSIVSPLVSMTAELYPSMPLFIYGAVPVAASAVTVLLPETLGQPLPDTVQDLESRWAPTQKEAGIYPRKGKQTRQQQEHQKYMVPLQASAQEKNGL

[6] = target: T2, OAT3 (Homo sapiens, UniProt Q8TCC7); assay: as above; type: in vitro ADME
T2 construct: expressed in transfected cells; host or cells: HEK293 cells
T2 sequence (Q8TCC7 1-542): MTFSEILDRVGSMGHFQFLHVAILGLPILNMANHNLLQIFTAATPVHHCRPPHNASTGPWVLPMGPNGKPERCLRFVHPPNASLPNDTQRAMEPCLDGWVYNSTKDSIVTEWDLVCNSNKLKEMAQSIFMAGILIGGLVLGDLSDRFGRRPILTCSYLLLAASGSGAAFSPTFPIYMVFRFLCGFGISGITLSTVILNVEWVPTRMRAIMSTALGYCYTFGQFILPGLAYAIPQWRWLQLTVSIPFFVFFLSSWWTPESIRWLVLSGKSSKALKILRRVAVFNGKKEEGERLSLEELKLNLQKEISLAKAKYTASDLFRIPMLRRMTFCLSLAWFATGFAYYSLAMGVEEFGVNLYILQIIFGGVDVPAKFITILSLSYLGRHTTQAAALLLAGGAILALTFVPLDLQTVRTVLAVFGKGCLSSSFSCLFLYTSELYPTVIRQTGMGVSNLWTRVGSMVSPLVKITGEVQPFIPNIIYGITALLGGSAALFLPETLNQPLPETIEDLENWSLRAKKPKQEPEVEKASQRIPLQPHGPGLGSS

[7] = system: Caco-2 cells; assay: cytotoxicity by lactate dehydrogenase (LDH) release; type: cell-based
[8] = system: MDCKII control cells; assay: as above; type: cell-based
[9] = system: normal sensation; assay: normal sensation in uninjured animals
[10] = male dogs, 10 mg/kg oral gavage

In the case of CC1(C)SC(Nc2ccccc2O)=N[C@@H]1C(=O)O.Cl [Compound 1, (R)-2-(2-hydroxyphenylamino)-5,5-dimethyl-4,5-dihydrothiazole-4-carboxylic acid mono-hydrochloride], the “removal of peroxynitrite in lactoperoxidase oxidation” value [1] is reported as “catalytically remove peroxynitrite”, the “hyperalgesia (mechanical thresholds)” value [2] is reported as “protected from hyperalgesia” and the “Compound 1 Concentration in Rat Plasma” value ([3]; Female, 0.5 h post-dose, mono-hydrochloride, 100 mg/kg) is reported as 34.3 µg/mL. For the same molecule, the “Compound 1 Concentration in Rat Plasma, Average” value ([3]; Female, 1 h post-dose) was 60.1 µg/mL, the “Compound 1 Concentration in Rat Plasma” value ([3]; Female, 1 h post-dose, mono-hydrochloride, 100 mg/kg) was 53.9 µg/mL and the “Compound 1 Concentration in Rat Plasma, Average” value ([3]; Female, 4 h post-dose) was 22.6 µg/mL. The “Compound 1 Concentration in Rat Plasma” value ([3]; Male, 0.5 h post-dose, mono-hydrochloride, 100 mg/kg) was 13.8 µg/mL, the “Compound 1 Concentration in Rat Plasma, Average” value ([3]; Male, 1 h post-dose) was 14.9 µg/mL and the “Compound 1 Concentration in Rat Plasma, Average” value ([3]; Male, 2 h post-dose) was 14.3 µg/mL. The “Compound 1 Concentration in Rat Plasma” value ([3]; Male, 2 h post-dose, mono-hydrochloride, 100 mg/kg) was 16.3 µg/mL, the “Compound 1 Concentration in Rat Plasma” value ([3]; Male, 8 h post-dose, mono-hydrochloride, 100 mg/kg) was 1.61 µg/mL and the “Compound 1 Concentration in Rat Plasma” value ([3]; Male, 24 h post-dose) was “BQL”. The “mean Cmax” value ([3]; females) was 60000 ng/mL, the t1/2 ([3]; females) was 4 h and the “mean Cmax” value ([3]; males) was 15000 ng/mL. For the same molecule, the t1/2 ([3]; males) was 7 h, the “epimerization in vivo (chiral column)” value ([3]; rat plasma) was “did not provide any evidence of epimerization” and the “epimerization in vivo (chiral column)” value ([4]; dog plasma) was “did not provide any evidence of epimerization”. For the same molecule, the half-life ([4]; dog, plasma, male dogs, 10 mg/kg oral gavage, read-out: median t1/2 (converted)) was 1.4 h, the tmax ([4]; male dogs, 3 mg/kg IV bolus) was “about 5 minutes” and the “average oral Cmax” value [4, 10] was 12000 ng/mL. For the same molecule, the tmax [4, 10] was “about 1 hour”, the mean oral bioavailability ([4]; male dogs, 10 mg/kg oral vs 3 mg/kg IV) was 72% and the “inhibition” value [5] was “does not inhibit”. For the same molecule, the “inhibition” value [6] was “weakly inhibits”, the “cytotoxicity (LDH release)” value [7] was “less than 25%” and the “percent cytotoxicity (LDH release)” value ([8]; 100 μM) was 31.3%. For the same molecule, the “percent cytotoxicity (LDH release)” value ([8]; 600 μM) was 33.6% and the “effect on normal sensation” value [9] was “does not alter normal sensation”.
